# Legend:
# laser-induced CNV = assay: Fluorescein angiography grading of leakage and CNV closure in the rat model of laser-induced CNV; type: in vivo, Brown Norway rats
# Protocol: (§1) Briefly, CNV membranes were induced in Brown-Norway rats using an Argon/Dye laser while either 17AAG at a total dose of approximately 2 mg or the vehicle (DMSO) was continuously administered. Verterporfin PDT was performed 14 days after CNV induction at a verterporfin dose of 3 mg/m^2, an irradiance of 600 mW/cm^2, and a fluence of 25 J/cm^2. Choroidal neovasculature closure on fluorescein angiograms was assessed 24 hours and 7 days after PDT in a masked fashion using grading standards. Retinal levels of p42/44 MAPK, HIF-1a, NF-kB, VEGF, and endostatin were assessed with a modified enzyme-linked immunoabsorbant assay (“ELISA”) method. […] The combination of 17-allylamino-17-demethoxygeldanamycin treatment and PDT treatment was also synergistic with respect to increased endostatin levels.
# All experiments adhered to the Association for Research in Vision and Ophthalmology Statement for the Use of Animals in Ophthalmic and Vision Research and the guidelines established by the Animal Care Committee of the Massachusetts Eye and Ear Infirmary. Brown Norway rats (Charles River Laboratory, Wilmington, Mass.) were anesthetized via an intramuscular injection of 50 mg/kg of ketamine hydrochloride and 10 mg/kg of xylazine. Pupils were dilated with a topical application of 5% phenylephrine and 0.8% tropicamide. […]
# Fluorescein angiography (“FA”) was performed 14 days after the initial laser treatment using a digital fundus camera system (model TRC 501A Topcon, Paramus, N.J.) and standard fluorescein filters to determine if CNV induction was successful. […] All angiograms were evaluated in masked fashion by two independent retina specialists using grading standards regarding severity of CNV (baseline FAs) and CNV closure (24 hours FAs).
# PDT with verteporfin was performed on experimental CNV. […] The body surface area of each rat was determined based on their weight according to a nomogram developed by Gilpin (Gilpin et al. (1996) Burns 22(8): 607-1 1). […]
# endostatin = assay: ELISA for retinal endostatin levels in laser-induced CNV rats; type: in vivo, Brown Norway rats
# Protocol: (§2) Briefly, CNV membranes were induced in Brown-Norway rats using an Argon/Dye laser while either 17AAG at a total dose of approximately 2 mg or the vehicle (DMSO) was continuously administered. Verterporfin PDT was performed 14 days after CNV induction at a verterporfin dose of 3 mg/m^2, an irradiance of 600 mW/cm^2, and a fluence of 25 J/cm^2. Choroidal neovasculature closure on fluorescein angiograms was assessed 24 hours and 7 days after PDT in a masked fashion using grading standards. Retinal levels of p42/44 MAPK, HIF-1a, NF-kB, VEGF, and endostatin were assessed with a modified enzyme-linked immunoabsorbant assay (“ELISA”) method. […]
# Each retina was homogenized in 100 μl of solution consisting of 20 mM imidazole hydrochloride, 100 mM KCl, 1 mM MgCl, 1 mM EGTA, 1% Triton, 10 mM NaF, 1 mM sodium molybdynate and 1 mM EDTA supplemented with a cocktail of protease inhibitors (Complete, Roche, Basel, Switzerland) prior to use. Samples were cleared by centrifugation for 10 min. at 13,000 rpm and assessed for protein concentration with the BCA assay (Micro BCA™ Protein Assay Kit, Pierce Co., Rockford, Ill.). […] The reaction was stopped, and the absorption was measured in an ELISA reader at 450 nm. […] The tissue sample concentration was calculated from a standard curve and corrected for protein concentration.
# HIF-1a = assay: Quantification of retinal HIF-1a activation (Trans-AM transcription factor assay on retinal nuclear extract); type: in vivo, Brown Norway rats
# Protocol: as §2
# (§3) NF-kB and HIF-1a activation was analyzed using the Trans-AM NF-kB p65/NF-kB p50 Transcription Factor Assay Kit (Active Motif North America, Carlsbad, Calif.) according to the manufacturer's instructions. Briefly, two micrograms of a retinal nuclear extract were incubated with an oligonucleotide containing the consensus binding element for each of the transcription factors analyzed bound to a 96-well plate. […] After washes, the plates were subsequently incubated with a secondary antibody conjugated to horseradish peroxidase (1:1000), and the peroxidase reaction was quantified at 450 nm with a reference wavelength of 655 nm. […]
# NF-kB = assay: Quantification of retinal NF-kB activation (Trans-AM transcription factor assay on retinal nuclear extract); type: in vivo, Brown Norway rats
# Protocol: as §2, §3
# p42/44 MAPK = assay: Retinal p42/44 MAPK activation (modified ELISA) in laser-induced CNV rats; type: in vivo, Brown Norway rats
# Protocol: as §1
# To achieve steady drug levels in the circulation of animals, 17AAG (Calbiochem EMD Biosciences, San Diego, Calif.) or the vehicle (DMSO, Sigma, St. Louis, Mo.) was administered by slow intraperitoneal release from osmotic pumps (Alzet, Cupertino, Calif.) instead of repeated intraperitoneal injections. Immediately following the induction of choroidal neovascularization, osmotic pumps (Alzet, Cupertino, Calif.) were implanted as previously described (Poulaki et al. (2002) J. Clin. Invest. 109(6): 805-15). […]
# [1] = parameters: unit not given here; settings: typical value, general description; cited from earlier work
compound,measurement,setting,value
"C=CCNC1=C2C[C@@H](C)C[C@H](OC)[C@H](O)[C@@H](C)/C=C(\C)[C@H](OC(N)=O)[C@@H](OC)/C=C\C=C(/C)C(=O)NC(=CC1=O)C2=O [17AAG, 17-allylamino-17-demethoxygeldanamycin]",lesions closed one week after PDT treatment,"laser-induced CNV; grade IIB lesions, 17AAG in combination with verteporfin PDT, DMSO+PDT control 6 out of 17",12 out of the 14
same,lesions closed one day after PDT treatment,"laser-induced CNV; grade IIB lesions, 17AAG in combination with verteporfin PDT, DMSO+PDT control 9 out of 17",12 out of the 14
same,lesions showing the highest grade (IIB) of leakage,"laser-induced CNV; two weeks following CNV induction, 17AAG approx. 2 mg by i.p. osmotic pump, without PDT, P>0.05 vs DMSO (32 out of 53)",26 out of 47
same,retinal levels of endostatin,"endostatin; 17AAG and PDT treated animals, 1 day after PDT, statistically significant vs laser treated 15.7±2.8",258±6 O.D./μg tissue
same,retinal levels of endostatin,"endostatin; 17AAG and laser treated animals without PDT, P>0.05 vs laser treated 15.7±2.8",32.34±6.11 O.D./μg tissue
same,retinal levels of HIF-1a activation,"HIF-1a; 17AAG and PDT treated animals, 1 day after PDT, PDT without 17AAG 1.69±0.38",0.946±0.06 O.D./μg tissue
same,retinal levels of HIF-1a activation,"HIF-1a; 17AAG and laser treated animals without PDT, P>0.05 vs laser treated 1.06±0.1",1.064±0.136 O.D./μg tissue
same,retinal levels of NF-kB activation,"NF-kB; 17AAG and PDT treated animals, 1 day after PDT, PDT without 17AAG 13.7±0.3",5.9±0.045 O.D./μg tissue
same,retinal levels of NF-kB activation,"NF-kB; 17AAG and laser treated animals without PDT, P>0.05 vs laser treated 10.12±0.74",9.54±1.47 O.D./μg tissue
same,retinal levels of p42/44 MAPK activation,"p42/44 MAPK; 17AAG and PDT treated animals, 1 day after PDT, PDT without 17AAG 923±45",417±6 O.D./μg tissue
same,retinal levels of p42/44 MAPK activation,"p42/44 MAPK; 17AAG and laser treated animals without PDT, P>0.05 vs laser treated 603±1",560±22 O.D./μg tissue
C=Cc1c(C)c2cc3nc(c(CC(=O)N[C@@H](CC(=O)O)C(=O)O)c4[nH]c(cc5nc(cc1[nH]2)C(C)=C5CC)c(C)c4C(=O)O)[C@@H](CCC(=O)O)[C@@H]3C [N-aspartyl chlorin e6],time the photosensitizer persists in the target neovasculature,[1],about twenty
CC(=O)[O-].CC(=O)[O-].CCc1c(CC)c2cc3nc(cnc4cc(OCCOCCOCCOC)c(OCCOCCOCCOC)cc4ncc4nc(cc1[n-]2)C(CCCO)=C4C)C(C)=C3CCCO.O.[Lu+3] [lutetium texaphyrin],time the photosensitizer persists in the target neovasculature,[1],about twenty
benzoporphyrin derivative,time the photosensitizer persists in the target neovasculature,[1],about fifty
